According to US11471462B2, “Compositions and methods for detecting and treating diabetes” (THE BROAD INSTITUTE, INC., priority 2016, dated 2022):

What was measured:
SLC16A11 [1] = test: Compound treatment, SLC16A11 expression by ddPCR in SNU761 cells; type: cell-based, human; details: SNU761 cells; same concentrations and treatment times as LINCS; ddPCR
Procedure, shortened: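 SNU761 hepatocellular carcinoma cells, plated 24 h, treated with compounds at 10 μM final or vehicle, with treatment times matching the LINCS dataset. SLC16A11 mRNA quantified by TaqMan droplet digital PCR, normalized to TBP or HPRT1.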

SLC16A11 [2] = test: Compound treatment, SLC16A11 expression by ddPCR in NCIH716 cells; type: cell-based, human; details: same concentrations and treatment times as LINCS
Method: A small number of the compounds that made the strongest positive connections to the SLC16A11 gene expression signature were selected and tested. […] Methotrexate was also included, which had been annotated as a dihydrofolate reductase inhibitor. SNU761 cells (derived from a human hepatocellular carcinoma) and NCIH716 cells (derived from a human cecum adenocarcinoma), which both express SLC16A11, were treated with the compounds. The same compound concentrations and treatment times were used as in the LINCS dataset experiments. […] For normalization, a different housekeeper gene, HPRT1, was used and obtained similar results with the mTOR inhibitors (FIGS. 14A and 14B).
SNU761 (human hepatocellular carcinoma) and NCIH716 (human cecum adenocarcinoma) were cultured in RPMI Medium 1640 supplemented with 10% Fetal Bovine Serum (FBS), 100 μg/ml Streptomycin and 100 U/ml Penicillin. Cells were grown in a humidified CO2 incubator, at 37° C.
For the unbiased approach taken to investigate the compounds that connected to the SLC16A11 gene expression signature, compounds were obtained from compound management at the Broad Institute.
SNU761 and NCIH716 cells were plated into 96 well plates at a density of 20,000 cells per well. Hepatocytes were plated into collagen coated 96 well plates (Corning, 354408) at a density of 50,000 cells per well. After 24 hours, cells were treated with compounds at a final concentration of 10 μM or vehicle control for the appropriate amount of time.
At the time of collection, cells in 96 well plates were lysed by directly adding 50 μL of RLT buffer (Qiagen). […]
RNA was DNase treated and converted into cDNA using the High-Capacity RNA-to-cDNA kit (Thermo Fisher Scientific). The following FAM-labeled TaqMan Real-Time PCR assays (Thermo Fisher Scientific) were used to quantify gene expression: SLC16A11 (Hs00601062_g1), SLC16A13 (Hs00416832_m1), SLC16A1 (Hs01560299_m1). […] Droplets were generated and analyzed using a QX200 Droplet Generator and Reader system (BioRad). Data was extracted using QuantaSoft (BioRad) and analyzed using Microsoft Excel.

SLC16A13 = test: Metabolic effectors on SLC16A13 transcript levels in SNU761 cells; type: cell-based, human; details: 24 hours, low and high concentrations
Method: (§1) FIG. 22 provides bar graphs showing the effects of low and high concentrations of metabolic effectors (oleic acid (OA), insulin and glucagon) on expression levels of SLC16A11 and SLC16A13 transcripts in SNU761 cells cultured for 24 hours in the presence of low/high concentrations of OA (0.3 mM/1.5 mM); insulin (100 nM/500 nM); or glucagon (100 nM/500 nM). Relative transcipt levels of SLC16A11 and SLC16A13 are shown, with 2-FBS (2% Fetal Bovine Serum) used as control.
(§2) FIG. 23 provides bar graphs showing the effects of low and high concentrations of pyruvate or lactate on expression levels of SLC16A11 and SLC16A13 transcripts in SNU761 cells cultured for 24 hours in the presence of 2 mM pyruvate (low), 10 mM pyruvate (high), 20 mM lactate (low), or 100 mM lactate (high). Relative transcipt levels of SLC16A11 and SLC16A13 are shown, compared with transcript levels in cell cultured in increasing concentrations of glucose.
(§3) To assess whether metabolic effectors regulated SLC16A11 and SLC16A13 transcript levels, endogenous transcripts in SNU761 cells (derived from a human hepatocellular carcinoma) were examined following exposure of the cells to different metabolic perturbations. SNU761 cells were cultured in the presence of various metabolic effectors for 24 hours after which time cell lysates were collected and the relative endogenous expression levels of SLC16A11 and SLC16A13 transcripts were assessed. The metabolic effectors included in the cell cultures included oleic acid (OA) at a low concentration (0.3 mM) or a high concentration (1.5 mM); insulin at a low concentration (100 nM) or a high concentration (500 nM) and glucagon at a low concentration (100 nM) and a high concentration (500 nM). Cells cultured in 2-FBS were used as a control. […] (FIG. 22). Similarly, SNU761 cells were cultured in the presence or absence of low or high concentrations of pyruvate or lactate in the culture medium for 24 hours after which time cell lysates were analyzed. In the cultures, low (L) pyruvate concentration was 2 mM; high (H) pyruvate concentration was 10 mM, and low lactate concentration was 20 mM, while high lactate concentration was 100 mM. […] (FIG. 23).

SLC16A11 [3] = test: Metabolic effectors on SLC16A11 transcript levels in SNU761 cells; type: cell-based, human; details: 24 hours, low and high concentrations
Method: as §1, §2, §3

SLC16A11 [4] = test: SLC16A11 protein-protein interaction study (immunoprecipitation, quantitative mass spectrometry); design: species or system human; details: putative SLC16A11^REF interaction partners; immunoprecipitation from HEK293T cells vs empty vector control; Blandt-Altman
From the text: Alternatively, these variants may result in reduced transport because they disrupt protein-protein interactions responsible for correct SLC16A11 function. To explore this possibility, SLC16A11 was immunoprecipitated from HEK293T cells expressing either REF or T2D risk SLC16A11-V5 or empty vector control and quantitative mass spectrometry was used to define the SLC16A11 interactome.
Another mechanism through which the variants could affect activity is through disruption of protein-protein interactions. To explore this possibility, quantitative mass spectrometry-based protein-protein interaction studies were performed to define the SLC16A11 interactome and evaluate if the T2D risk coding variants alter any interactions.
Beads were then washed once with lysis buffer and three times with wash buffer. After the last wash, residual wash buffer was removed, 10 μL fresh wash buffer was added, and beads were stored at −80° C. until analysis by the Proteomics Platform at the Broad Institute, as detailed in the “Proteomics Methods for SLC16A11 Protein Interaction Studies” below.
The beads from immunopurification were washed once with IP lysis buffer, then three times with PBS, the three different lysates of each replicate were resuspended in 90 uL digestion buffer (2M Urea, 50 mM Tris HCl), 2 ug of sequencing grade trypsin added, 1 hour shaking at 700 rpm. The supernatant was removed and placed in a fresh tube. The beads were then washed twice with 50 uL digestion buffer and combined with the supernatant. The combined supernatants were reduced (2 uL 500 mM DTT, 30 minutes, RT), alkylated (4 uL 500 mM IAA, 45 minutes, dark) and a longer overnight digestion performed: 2 ug (4 uL) trypsin, shake o/n, The samples were then quenched with 20 uL 10% FA and desalted on 10 mg SepPak columns.
Desalted peptides were labelled with iTRAQ reagents according to the manufacturer's instructions (AB Sciex, Foster City, Calif.). Peptides were dissolved in 30 μl of 0.5 M TEAB pH 8.5 solution and labeling reagent was added in 70 ul of ethanol. After 1 h incubation the reaction was stopped with 50 mM Tris/HCl pH 7.5. Differentially labelled peptides were mixed and subsequently desalted on 10 mg SepPak columns.
Reconstituted peptides were separated on an online nanoflow EASY-nLC 1000 UHPLC system (Thermo Fisher Scientific) and analyzed on a benchtop Orbitrap Q Exactive Plus mass spectrometer (Thermo Fisher Scientific). The peptide samples were injected onto a capillary column (Picofrit with 10 μm tip opening/75 μm diameter, New Objective, PF360-75-10-N-5) packed in-house with 20 cm C18 silica material (1.9 μm ReproSil-Pur C18-AQ medium, Dr. Maisch GmbH, r119.aq). The UHPLC setup was connected with a custom-fit microadapting tee (360 μm, IDEX Health & Science, UH-753), and capillary columns were heated to 50° C. in column heater sleeves (Phoenix-ST) to reduce backpressure during UHPLC separation. Injected peptides were separated at a flow rate of 200 nL/min with a linear 80 min gradient from 100% solvent A (3% acetonitrile, 0.1% formic acid) to 30% solvent B (90% acetonitrile, 0.1% formic acid), followed by a linear 6 min gradient from 30% solvent B to 90% solvent B. Each sample was run for 120 min, including sample loading and column equilibration times. The Q Exactive instrument was operated in the data-dependent mode acquiring HCD MS/MS scans (R=17,500) after each MS1 scan (R=70,000) on the 12 top most abundant ions using an MS1 ion target of 3×10^6 ions and an MS2 target of 5×10^4 ions. The maximum ion time utilized for the MS/MS scans was 120 ms; the HCD-normalized collision energy was set to 27; the dynamic exclusion time was set to 20 s, and the peptide match and isotope exclusion functions were enabled.
All mass spectra were processed using the Spectrum Mill software package v6.0 pre-release (Agilent Technologies) which includes modules developed by us for iTRAQ-based quantification. […]

How did the “SLC16A11 transcript levels, compound treated compared to DMSO treated cells” value (SLC16A11 [1]) turn out when `CN(Cc1cnc2nc(N)nc(N)c2n1)c1ccc(C(=O)N[C@@H](CCC(=O)O)C(=O)O)cc1` [methotrexate, reference compound] was run?
Its value is “did not alter”.

And the “SLC16A11 transcript levels, compound treated compared to DMSO treated cells” value (SLC16A11 [2])?
The value was “did not alter”.

How did the SLC16A13 transcript levels (SLC16A13) turn out when `CCCCCCCC/C=C\CCCCCCCC(=O)O` [oleic acid] was run?
Its SLC16A13 transcript levels is “increase”.

What about the SLC16A11 transcript levels (SLC16A11 [3]) of the same compound?
The SLC16A11 transcript levels was “alter”.

With ATP1B3 as the compound, how does the “BA log fold change” value (SLC16A11 [4]) read?
Its value is 1.18.

Which “BA log fold change” value (SLC16A11 [4]) does the source give for BAG6 here?
The value was 1.08.

Which “BA log fold change” value (SLC16A11 [4]) does the source give for DNAJB4 here?
The value was 1.08.

EMB was tested. Which “BA log fold change” value (SLC16A11 [4]) did it give?
Its value is 1.55.

Which “BA log fold change” value (SLC16A11 [4]) does the source give for GCN1L1 here?
Its value is 1.01.

For KIAA0368, which “BA log fold change” value (SLC16A11 [4]) is on record?
Its value is 1.16.

For PSMA1, which “BA log fold change” value (SLC16A11 [4]) is on record?
Its value is 1.20.

For PSMC3, which “BA log fold change” value (SLC16A11 [4]) is on record?
Its value is 1.16.

Which “BA log fold change” value (SLC16A11 [4]) does the source give for PSMD2 here?
Its value is 0.98.

How did the “BA log fold change” value (SLC16A11 [4]) turn out when PSMD11 was run?
Its value is 1.02.

With PSMD14 as the compound, how does the “BA log fold change” value (SLC16A11 [4]) read?
The value was 1.31.

How did the “BA log fold change” value (SLC16A11 [4]) turn out when RNF5 was run?
The value was 1.42.

SCFD1 was tested. Which “BA log fold change” value (SLC16A11 [4]) did it give?
Its value is 1.08.

Which “BA log fold change” value (SLC16A11 [4]) does the source give for TUBA1B here?
The value was 1.05.

What does the source list for glucagon: metabolic effector (hormone)?
SLC16A13 transcript levels (SLC16A13): alter; SLC16A11 transcript levels (SLC16A11 [3]): alter

insulin: metabolic effector (hormone) was tested. Which SLC16A13 transcript levels (SLC16A13) did it give?
The SLC16A13 transcript levels was “alter”.

What about the SLC16A11 transcript levels (SLC16A11 [3]) of the same compound?
Its SLC16A11 transcript levels is “alter”.
